Entries after “also recorded” stand apart in the source; their conditions may differ.
What was measured:
HCT116 cells = test: Cell proliferation screen (SYBR Green, Biomek FX); assay type: cell-based, human; conditions: 50 μM; percentage of values obtained with DMSO alone
Experimental: The ability of the compounds identified by CADD to inhibit proliferation of normal mammary epithelial MCF10A cells and colon carcinoma HCT116 cells was determined using a Biomek FX Laboratory Automation Workstation (Beckman Coulter, Inc., Fullerton, Calif.). On day 0, 20 μl of complete medium containing the appropriate number of cells (150-300) was plated per well of a 384-well tissue plate (Fisher Scientific, Hampton, N.H.) and incubated overnight at 37° C. with 5% CO2 and 90% humidity. Next day, day 1, compounds were prepared by serial dilution with complete medium to yield the concentration 100 μM, and 20 μl was added to each well containing 20 μl of medium and cells yielding the final concentration 50 μM in 40 μl volume. Plates were incubated for additional 3 days (days-2-5) until control cells (0.5% DMSO) reached ˜70-80% confluency. On day 6, 40 μl of lysis/detection solution containing 1.2% Igepal CA-630 (Sigma) and a 1:1000 dilution of SYBR Green I nucleic acid stain (Molecular Probes, Eugene, Oreg.) was added to each well. Following an overnight incubation at 37° C., total fluorescence was measured using a Fluorostar Galaxy plate reader with a 485 nm excitation filter and 520 nm emission filter set (BMG Labtech, Inc., Durham, N.C.). Data was exported to a custom program that determined growth inhibition by dividing each individual fluorescence value by the average of fluorescence values obtained with cells treated with DMSO alone.
The 192 human DNA ligase inhibitors were screened in parallel for effects on proliferation and the ability to potentiate the effects of several DNA damaging agents using two cell human lines, a colon cancer line HCT116 and a normal breast epithelial cell line MCF10A using a Biomek FX Laboratory Automation Workstation as described (23). The DNA damaging agents used, methyl methanesulfonate (MMS), camptothecin, cis-platinum, 3 aminobenzamide and ionizing radiation, are representatives of classes of agents used to treat cancer. Briefly, HCT116 and MCF10A cells were plated in 96 well plates such that the cultures were about 80% confluent after 5 days incubation. Compounds were added to the cultures at either 15 μM or 50 μM 1 day after plating. After incubation for 3 days, cell lysed in a solution containing 1.2% Igepal CA-630 and SYBR green that stains DNA (1:1000, Molecular Probes, Eugene, Oreg.). Subsequently, fluorescence was measured per well. The studies with DNA damaging agents were performed as follows. […] For ionizing radiation, cells were pre-incubated with the compounds at 50 μM for 1 hour prior to exposure to 2 gray of ionizing radiation. Cultures were incubated for 3 days and then treated as above.

DNA = DNA binding by displacement of ethidium bromide from DNA; conditions: EtBr replacement assay; 192 at 0, 50, 100 μM
Experimental: Candidate ligase inhibitors identified by CADD were assayed for their ability to inhibit hLigI and T4 DNA ligase using a high-throughput, fluorescence energy transfer-based DNA joining assay (22). Duplicate reactions (30 μL) containing 10 pmol of nicked DNA substrate and either 0.25 pmol of hLigI or 10 units of T4 DNA ligase were incubated in the presence or absence of 100 μmol/L of the putative inhibitor. DNA binding by the candidate DNA ligase inhibitors was measured by displacement of ethidium bromide from DNA as previously described (30).

hLigI = target: T1, hLigI (Homo sapiens, UniProt P18858); test: High-throughput fluorescence-based DNA joining (ligation) assay; assay type: biochemical; conditions: in vitro screen, 100 μmol/L; the 15 hLigI inhibitors inhibited by >50%
T1 construct: made in house
T1 sequence (P18858 whole entry): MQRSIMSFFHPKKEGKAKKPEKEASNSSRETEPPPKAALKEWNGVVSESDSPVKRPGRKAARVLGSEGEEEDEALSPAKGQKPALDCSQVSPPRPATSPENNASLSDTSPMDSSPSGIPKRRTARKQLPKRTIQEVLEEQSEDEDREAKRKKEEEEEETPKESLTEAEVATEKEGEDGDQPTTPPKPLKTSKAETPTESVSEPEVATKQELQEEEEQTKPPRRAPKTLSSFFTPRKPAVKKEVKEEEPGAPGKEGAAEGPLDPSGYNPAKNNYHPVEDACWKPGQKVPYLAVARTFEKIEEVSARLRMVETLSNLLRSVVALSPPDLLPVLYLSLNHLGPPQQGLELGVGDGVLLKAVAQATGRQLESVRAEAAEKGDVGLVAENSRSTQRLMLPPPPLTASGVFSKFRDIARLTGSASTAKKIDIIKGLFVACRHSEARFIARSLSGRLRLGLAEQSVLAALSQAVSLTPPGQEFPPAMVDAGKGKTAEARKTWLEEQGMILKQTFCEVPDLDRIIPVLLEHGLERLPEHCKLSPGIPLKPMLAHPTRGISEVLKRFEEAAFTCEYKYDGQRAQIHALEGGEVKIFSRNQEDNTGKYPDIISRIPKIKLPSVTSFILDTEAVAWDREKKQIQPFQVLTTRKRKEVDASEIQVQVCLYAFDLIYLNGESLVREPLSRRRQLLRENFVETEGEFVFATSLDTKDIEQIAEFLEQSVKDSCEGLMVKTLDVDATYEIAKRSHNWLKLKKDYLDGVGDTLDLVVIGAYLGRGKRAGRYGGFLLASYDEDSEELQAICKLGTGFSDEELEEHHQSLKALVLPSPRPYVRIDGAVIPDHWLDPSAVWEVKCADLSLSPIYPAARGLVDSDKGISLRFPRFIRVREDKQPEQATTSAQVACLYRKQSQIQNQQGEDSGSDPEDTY
Procedure, shortened: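 Nicked DNA substrate (10 pmol) was incubated with 0.25 pmol hLigI, with or without 100 μmol/L test compound, in duplicate. Afterwards the DNA was denatured and renatured with a 20-fold excess of unmodified oligonucleotide. Ligation forms an AF488/BHQ1 hairpin, read as reduced fluorescence at 518 nm.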

T4 DNA ligase = target: T2, T4 DNA ligase (Enterobacteria phage T4, UniProt P00970); test: High-throughput fluorescence-based DNA joining assay, non-specific inhibitor control; assay type: biochemical, bacteriophage T4; conditions: in vitro screen, 100 μmol/L
T2 construct: purchased NEB
T2 sequence (P00970 1-487): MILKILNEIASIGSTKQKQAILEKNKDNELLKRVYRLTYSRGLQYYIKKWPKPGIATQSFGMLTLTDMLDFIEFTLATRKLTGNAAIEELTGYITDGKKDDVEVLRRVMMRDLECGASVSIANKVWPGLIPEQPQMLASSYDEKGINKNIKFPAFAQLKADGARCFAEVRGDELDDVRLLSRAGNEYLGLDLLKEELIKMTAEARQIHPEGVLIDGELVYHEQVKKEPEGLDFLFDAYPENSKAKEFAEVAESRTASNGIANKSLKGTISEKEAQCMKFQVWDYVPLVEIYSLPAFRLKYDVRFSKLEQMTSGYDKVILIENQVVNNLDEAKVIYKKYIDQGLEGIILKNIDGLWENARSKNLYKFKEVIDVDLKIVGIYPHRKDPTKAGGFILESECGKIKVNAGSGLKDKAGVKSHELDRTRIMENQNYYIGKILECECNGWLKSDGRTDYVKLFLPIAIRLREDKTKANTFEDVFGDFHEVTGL
Procedure, shortened: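 This counter-screen used a FRET-based DNA joining assay. Duplicate reactions held 10 pmol nicked DNA substrate and 10 units T4 DNA ligase, with or without 100 μmol/L compound. T4 ligase lacks the DNA-binding domain targeted in silico, so compounds inhibiting it were flagged as non-specific, likely DNA-binding.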

With O=S(=O)(O)N=Nc1ccc2c(c1)[nH]c1ccccc12 [Compound 192] the “Growth_Inh % (50 μM) HCT116” value (HCT116 cells) was 70%, the “DNA binding of compound (effect on DNA binding by ethidium bromide)” value (DNA) was “reduced DNA binding of the DNA intercalating agent ethidium bromide; also recorded: EtBr is replaced” and the “inhibition of hLigI (DNA ligase I), in words” value (hLigI) was “inhibited hLigI; also recorded: inhibits both hLigI and T4 DNA ligase”. The “inhibition of T4 DNA ligase, in words” value (T4 DNA ligase) was “inhibits both hLigI and T4 DNA ligase”.

— patent US9757375B2, “Compounds that inhibit human DNA ligases and methods of treating cancer” (University of Maryland, Baltimore, priority 2007, dated 2017)
